The target in this assay is T1, F508del (Homo sapiens, UniProt P13569, DEL508-508).
T1 construct: expressed in transfected cells
T1 sequence (P13569 with tags, fused parts or gaps DEL508-508): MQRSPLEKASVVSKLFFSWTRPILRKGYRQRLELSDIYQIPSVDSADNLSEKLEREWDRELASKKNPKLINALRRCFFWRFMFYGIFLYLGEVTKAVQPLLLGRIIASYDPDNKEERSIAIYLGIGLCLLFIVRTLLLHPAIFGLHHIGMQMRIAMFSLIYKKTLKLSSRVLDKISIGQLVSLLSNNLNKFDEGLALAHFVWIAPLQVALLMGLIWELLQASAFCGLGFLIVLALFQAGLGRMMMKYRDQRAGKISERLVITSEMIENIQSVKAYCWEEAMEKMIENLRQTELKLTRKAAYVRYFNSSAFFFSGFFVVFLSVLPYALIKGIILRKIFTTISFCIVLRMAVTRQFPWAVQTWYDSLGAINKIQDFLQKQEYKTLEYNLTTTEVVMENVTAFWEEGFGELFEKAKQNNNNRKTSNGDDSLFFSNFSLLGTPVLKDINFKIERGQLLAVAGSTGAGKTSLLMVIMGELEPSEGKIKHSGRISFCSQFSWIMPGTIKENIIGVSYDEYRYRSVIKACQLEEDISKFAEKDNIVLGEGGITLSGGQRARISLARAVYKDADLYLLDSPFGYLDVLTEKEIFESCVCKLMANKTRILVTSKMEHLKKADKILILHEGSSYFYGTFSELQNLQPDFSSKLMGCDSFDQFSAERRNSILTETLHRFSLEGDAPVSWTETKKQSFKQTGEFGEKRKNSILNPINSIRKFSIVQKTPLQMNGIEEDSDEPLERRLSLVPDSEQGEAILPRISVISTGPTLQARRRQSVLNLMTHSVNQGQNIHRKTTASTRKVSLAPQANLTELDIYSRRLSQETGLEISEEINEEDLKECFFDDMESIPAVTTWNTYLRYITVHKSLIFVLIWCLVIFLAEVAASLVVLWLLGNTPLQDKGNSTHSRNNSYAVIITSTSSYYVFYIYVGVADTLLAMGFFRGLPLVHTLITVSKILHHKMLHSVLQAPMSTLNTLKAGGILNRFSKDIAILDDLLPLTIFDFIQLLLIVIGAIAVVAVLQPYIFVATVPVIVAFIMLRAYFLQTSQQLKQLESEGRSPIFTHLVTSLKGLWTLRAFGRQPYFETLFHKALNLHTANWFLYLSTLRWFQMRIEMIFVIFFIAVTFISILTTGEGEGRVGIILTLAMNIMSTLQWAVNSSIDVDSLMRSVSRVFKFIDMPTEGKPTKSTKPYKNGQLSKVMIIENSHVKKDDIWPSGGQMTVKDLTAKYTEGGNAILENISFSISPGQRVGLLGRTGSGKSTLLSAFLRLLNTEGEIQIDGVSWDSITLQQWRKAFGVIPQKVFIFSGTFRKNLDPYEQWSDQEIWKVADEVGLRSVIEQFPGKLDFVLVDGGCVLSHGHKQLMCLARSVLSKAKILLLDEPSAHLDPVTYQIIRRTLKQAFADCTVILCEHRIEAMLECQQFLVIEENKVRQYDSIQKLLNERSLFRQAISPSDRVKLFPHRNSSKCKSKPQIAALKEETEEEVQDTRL
As to the kind of experiment: Protocol 1: membrane potential optical assay (FLIPR III, voltage sensing dye), identification of potentiator compounds. The format is cell-based. The conditions noted are these: Table 3, compounds of Table 1. In a few lines:
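Gating potentiation is read as a membrane-potential fluorescence change (FLIPR III, voltage-sensing dye) after one forskolin addition under a Cl− gradient, with gluconate replacing chloride, pH 7.4. Cells are F508del-expressing NIH3T3 mouse fibroblasts held 24 h at 27 °C and exposed to compound before dye loading.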
Turning to `CC(C)COc1cc(F)cc(-c2ccc(C(=O)NS(=O)(=O)c3cccc(N)n3)c(N3CCC4(CCC4)CC3)n2)c1` [Compound 1303, N-[(6-amino-2-pyridyl)sulfonyl]-2-(7-azaspiro[3.5]nonan-7-yl)-6-(3-fluoro-5-isobutoxy-phenyl)pyridine-3-carboxamide], the EC30 entry is given as “+++ (“+++” means <3 uM)”.

As for `COc1cc(C)cc(Oc2cccc(S(=O)(=O)NC(=O)c3cccnc3N3CC(C)CC3(C)C)n2)c1` (centres unmarked) [Compound 1719, N—[[6-(3-methoxy-5-methyl-phenoxy)-2-pyridyl]sulfonyl]-2-(2,2,4-trimethylpyrrolidin-1-yl)pyridine-3-carboxamide], the EC30 entry is on record as “+++ (“+++” means <3 uM)”.

For `COc1cc(F)cc(-c2ccc(C(=O)NS(=O)(=O)c3cccnc3N)c(N3C[C@@H](C)CC3(C)C)n2)c1` [Compound 1869, N-[(2-amino-3-pyridyl)sulfonyl]-6-(3-fluoro-5-methoxy-phenyl)-2-[(4S)-2,2,4-trimethylpyrrolidin-1-yl]pyridine-3-carboxamide], the EC30 entry is on record as “+++ (“+++” means <3 uM)”.

Turning to `C[C@@H]1CN(c2nc(C(C)(C)C)ccc2C(=O)NS(=O)(=O)c2ccc[nH]c2=O)C(C)(C)C1` [Compound 1765, 6-tert-butyl-N-[(2-oxo-1H-pyridin-3-yl)sulfonyl]-2-[(4S)-2,2,4-trimethylpyrrolidin-1-yl]pyridine-3-carboxamide], the EC30 entry was “+++ (“+++” means <3 uM)”.

Regarding `CC(C)COc1ccn(-c2ccc(C(=O)NS(=O)(=O)c3ccc[nH]c3=O)c(N3C[C@@H](C)CC3(C)C)n2)n1` [Compound 1896, 6-(3-isobutoxypyrazol-1-yl)-N-[(2-oxo-1H-pyridin-3-yl)sulfonyl]-2-[(4S)-2,2,4-trimethylpyrrolidin-1-yl]pyridine-3-carboxamide], the EC30 entry is given as “+++ (“+++” means <3 uM)”.

Regarding `Cc1cc(C)c(Oc2nc(-c3ccc(OCC(C)C)cc3)ccc2C(=O)NS(=O)(=O)c2ccc[nH]c2=O)c(C)c1` [Compound 1079, 6-(4-isobutoxyphenyl)-N-[(2-oxo-1H-pyridin-3-yl)sulfonyl]-2-(2,4,6-trimethylphenoxy)pyridine-3-carboxamide], the EC30 entry is “+++ (“+++” means <3 uM)”.

`CC(C)COc1cc(F)cc(-c2ccc(C(=O)NS(=O)(=O)N3CCCC(N)C3)c(N3CC(C)CC3(C)C)n2)c1` (centres unmarked) [Compound 1447, N-[(3-amino-1-piperidyl)sulfonyl]-6-(3-fluoro-5-isobutoxy-phenyl)-2-(2,2,4-trimethylpyrrolidin-1-yl)pyridine-3-carboxamide]: the EC30 result is recorded as “+++ (“+++” means <3 uM)”.

As to `CC(C)COc1cc(F)cc(-c2ccc(C(=O)NS(=O)(=O)c3cccc(N)n3)c(OCC3(F)COC3)n2)c1` [Compound 1053, N-[(6-amino-2-pyridyl)sulfonyl]-6-(3-fluoro-5-isobutoxy-phenyl)-2-[(3-fluorooxetan-3-yl)methoxy]pyridine-3-carboxamide], the EC30 entry was “++ (“++” means between 3 uM and 10 uM)”.

Consider `CC(Oc1nc(N2C[C@@H](C)CC2(C)C)c(C(=O)NS(=O)(=O)c2cccc(N)n2)cc1F)C1CCCC1` (stereo partly drawn) [Compound 1966, N-[(6-amino-2-pyridyl)sulfonyl]-6-(1-cyclopentylethoxy)-5-fluoro-2-[(4S)-2,2,4-trimethylpyrrolidin-1-yl]pyridine-3-carboxamide], for which the EC30 entry is listed as “+++ (“+++” means <3 uM)”.

On to `COc1cccc(S(=O)(=O)NC(=O)c2ccc(-c3cc(F)cc(OCC(C)C)c3)nc2N2CC(C)CC2(C)C)c1` (centres unmarked) [Compound 1171, 6-(3-fluoro-5-isobutoxy-phenyl)-N-(3-methoxyphenyl)sulfonyl-2-(2,2,4-trimethylpyrrolidin-1-yl)pyridine-3-carboxamide], for which the EC30 entry is recorded as “+++ (“+++” means <3 uM)”.

With `C[C@@H]1CN(c2nc(C3CC4CCC3C4)ccc2C(=O)NS(=O)(=O)c2cccc(N)n2)C(C)(C)C1` (stereo partly drawn) [Compound 1378, NV [(6-amino-2-pyridyl)sulfonyl]-6-norbornan-2-yl-2-[(4S)-2,2,4-trimethylpyrrolidin-1-yl]pyridine-3-carboxamide], the EC30 entry is given as “+++ (“+++” means <3 uM)”.

Consider `CCc1ccnc(Nc2cccc(S(=O)(=O)NC(=O)c3cccnc3N3CC(C)CC3(C)C)n2)c1` (centres unmarked) [Compound 1862, N—[[6-[(4-ethyl-2-pyridyl)amino]-2-pyridyl]sulfonyl]-2-(2,2,4-trimethylpyrrolidin-1-yl)pyridine-3-carboxamide], for which the EC30 result is “+++ (“+++” means <3 uM)”.

Take `Cc1cc(C)c(Oc2nc(-c3ccccc3)ccc2C(=O)NS(=O)(=O)c2cccc(NCCN)n2)c(C)c1` [Compound 1027, N-[[6-(2-aminoethylamino)-2-pyridyl]sulfonyl]-6-phenyl-2-(2,4,6-trimethylphenoxy)pyridine-3-carboxamide]: the EC30 result is “++ (“++” means between 3 uM and 10 uM)”.

For the compound `C[C@@H]1CN(c2nc(C(C)(C)C)c(C(O)C(O)C3CCCCC3)cc2C(=O)NS(=O)(=O)c2cccc(N)n2)C(C)(C)C1` (some centres unmarked) [Compound 1846], the EC30 result is on record as “+++ (“+++” means <3 uM)”.

As to `CC1CN(c2nc(-c3ccnc(C(C)C)c3)ccc2C(=O)NS(=O)(=O)c2cccc(N)n2)C(C)(C)C1` (centres unmarked) [Compound 1262, N-[(6-amino-2-pyridyl)sulfonyl]-6-(2-isopropyl-4-pyridyl)-2-(2,2,4-trimethylpyrrolidin-1-yl)pyridine-3-carboxamide], the EC30 entry is “++ (“++” means between 3 uM and 10 uM)”.

In the case of `CC1CN(c2ncccc2C(=O)NS(=O)(=O)c2cccc(N3CCN(CC4OCCO4)CC3)n2)C(C)(C)C1` (centres unmarked) [Compound 1937, N—[[6-[4-(1,3-dioxolan-2-ylmethyl)piperazin-1-yl]-2-pyridyl]sulfonyl]-2-(2,2,4-trimethylpyrrolidin-1-yl)pyridine-3-carboxamide], the EC30 entry was “++ (“++” means between 3 uM and 10 uM)”.

With `COc1ccc(-c2ccc(C(=O)NS(=O)(=O)c3cccc(N)n3)c(Oc3c(C)cc(C)cc3C)n2)cc1OC` [Compound 1146, N-[(6-amino-2-pyridyl)sulfonyl]-6-(3,4-dimethoxyphenyl)-2-(2,4,6-trimethylphenoxy)pyridine-3-carboxamide], the EC30 entry was “++ (“++” means between 3 uM and 10 uM)”.

For the compound `C[C@@H]1CC[C@H](C)N1c1nc(-c2ccccc2)ccc1C(=O)NS(=O)(=O)c1cccc(N)n1` [Compound 805, N-[(6-amino-2-pyridyl)sulfonyl]-2-[(2S,5R)-2,5-dimethylpyrrolidin-1-yl]-6-phenyl-pyridine-3-carboxamide], the EC30 entry is listed as “+++ (“+++” means <3 uM)”.

With `Cc1cc(C)c(Oc2nc(C)ccc2C(=O)NS(=O)(=O)c2cccc(N(C)C)n2)c(C)c1` [Compound 1250, N-[[6-(dimethylamino)-2-pyridyl]sulfonyl]-6-methyl-2-(2,4,6-trimethylphenoxy)pyridine-3-carboxamide], the EC30 result is “+++ (“+++” means <3 uM)”.

For `CC(C)COc1cc(F)cc(-c2ccc(C(=O)NS(=O)(=O)c3cccc(N)n3)c(N3[C@@H]4CCC[C@H]3CC4)n2)c1` [Compound 934, N-[(6-amino-2-pyridyl)sulfonyl]-2-[(1R,5S)-8-azabicyclo[3.2.1]octan-8-yl]-6-(3-fluoro-5-isobutoxy-phenyl)pyridine-3-carboxamide], the EC30 entry is on record as “+++ (“+++” means <3 uM)”.

The values are drawn from patent US10758534B2 (Vertex Pharmaceuticals Incorporated, priority 2014, dated 2020).
